Measurements from ChEMBL document CHEMBL6127095, “Isoxazole compounds: Unveiling the synthetic strategy, in-silico SAR & toxicity studies and future perspective as PARP inhibitor in cancer therapy” (Eur J Med Chem, 2024).
In brackets after ≈: the same amount, converted by molar mass. Where a name gives a salt, the structure may show the parent alone. Each block holds one compound with its values, some of them ahead of it.

Assays:
[1] = system: MDA-MB-231; test: Anticancer activity against human MDA-MB-231 cells assessed as reduction in cell viability measured for 48 hrs by MTT assay; type: functional, cell-based; details: MDA-MB-231, 48 h
[2] = system: MDA-MB-231; test: Growth inhibition of human MDA-MB-231 cells; type: functional
[3] = system: MCF7; test: Antitumor activity against human MCF7 cells xenografted in BALB/c nude mouse assessed as tumor growth inhibition at 30 mg/kg, iv administered for 15 days; type: functional; parameters: scale not given: the % may be the effect or the level left; details: time 15 day
[4] = Toxicity in mouse assessed as lethal dose; details: in vivo
[5] = system: K562; test: Antiproliferative activity against human K562 cells assessed as reduction in cell viability after 72 hrs by MTT assay; type: functional, cell-based; details: K562, 72 h
[6] = target: Epidermal growth factor receptor (Homo sapiens, UniProt P00533); test: Inhibition of EGFR (unknown origin) using TK as substrate incubated for 30 mins by HTRF assay
[7] = system: MCF7; test: Antiproliferative activity against human MCF7 cells assessed as reduction in cell viability incubated for 48 hrs by MTT assay; type: functional, cell-based; details: MCF7, 48 h
[8] = system: PC-3; test: Antiproliferative activity against human PC-3 cells assessed as reduction in cell viability incubated for 24 hrs by MTT assay; type: functional, cell-based; details: PC-3, 24 h
[9] = system: DU-145; test: Antiproliferative activity against human DU-145 cells assessed as reduction in cell viability by MTT assay; type: functional, cell-based
[10] = system: HepG2; test: Antiproliferative activity against human HepG2 cells assessed as reduction in cell viability after 24 hrs by MTT assay; type: functional, cell-based; details: HepG2, 24 h
[11] = system: MCF7; test: Anticancer activity against human MCF7 cells assessed as inhibition of cell growth incubated for 24 hrs by MTT assay; type: functional, cell-based; details: MCF7, 24 h
[12] = system: PC-3; test: Anticancer activity against human PC-3 cells assessed as inhibition of cell growth incubated for 24 hrs by MTT assay; type: functional, cell-based; details: PC-3, 24 h
[13] = system: 4T1; test: Cytotoxicity against mouse 4T1 cells assessed as inhibition of cell proliferation incubated for 72 hrs by MTT assay; type: functional, cell-based; details: 4T1, 72 h
[14] = system: Huh-7; test: Antiproliferative activity against human Huh-7 cells assessed as reduction in cell growth; type: functional, cell-based
[15] = target: Heat shock protein HSP90 (Homo sapiens, UniProt P07900+P08238); test: Inhibition of HSP90 (unknown origin) ATPase activity; type: protein assay
[16] = target: Poly [ADP-ribose] polymerase 1 (Homo sapiens, UniProt P09874); test: Inhibition of PARP-1 (unknown origin)
[17] = system: MCF7; test: Growth inhibition of human MCF7 cells incubated fro 48 hrs by SRB assay; type: functional
[18] = system: PC-3; test: Growth inhibition of human PC-3 cells measured for 48 hrs by SRB assay; type: functional

Poly [ADP-ribose] polymerase 1, sequence (P09874 whole entry): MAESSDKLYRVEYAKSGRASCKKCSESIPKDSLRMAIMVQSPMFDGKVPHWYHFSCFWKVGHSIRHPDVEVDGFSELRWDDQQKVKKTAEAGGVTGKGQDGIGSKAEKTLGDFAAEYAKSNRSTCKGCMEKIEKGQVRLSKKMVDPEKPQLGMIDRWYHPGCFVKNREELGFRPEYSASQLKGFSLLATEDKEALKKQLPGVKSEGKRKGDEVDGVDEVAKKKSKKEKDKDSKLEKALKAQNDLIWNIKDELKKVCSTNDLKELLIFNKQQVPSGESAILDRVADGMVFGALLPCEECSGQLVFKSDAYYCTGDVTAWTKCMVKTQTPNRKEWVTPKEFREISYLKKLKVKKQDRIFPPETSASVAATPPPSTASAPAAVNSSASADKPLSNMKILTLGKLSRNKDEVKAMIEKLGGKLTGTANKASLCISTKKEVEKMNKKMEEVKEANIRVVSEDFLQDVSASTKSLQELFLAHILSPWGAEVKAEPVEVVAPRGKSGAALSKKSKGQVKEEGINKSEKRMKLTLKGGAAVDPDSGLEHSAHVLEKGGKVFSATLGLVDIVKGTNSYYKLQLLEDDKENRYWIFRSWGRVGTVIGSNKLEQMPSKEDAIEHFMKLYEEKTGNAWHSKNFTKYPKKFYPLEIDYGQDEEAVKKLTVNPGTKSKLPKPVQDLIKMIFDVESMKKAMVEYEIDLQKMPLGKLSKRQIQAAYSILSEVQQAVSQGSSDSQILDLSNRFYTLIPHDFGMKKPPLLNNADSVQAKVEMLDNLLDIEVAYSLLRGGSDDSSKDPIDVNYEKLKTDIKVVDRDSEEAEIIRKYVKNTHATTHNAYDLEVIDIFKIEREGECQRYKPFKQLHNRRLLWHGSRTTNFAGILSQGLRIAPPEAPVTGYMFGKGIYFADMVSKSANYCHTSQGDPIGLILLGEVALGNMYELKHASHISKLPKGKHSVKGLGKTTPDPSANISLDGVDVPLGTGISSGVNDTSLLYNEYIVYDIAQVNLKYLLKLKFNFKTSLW
Epidermal growth factor receptor, sequence (P00533 whole entry): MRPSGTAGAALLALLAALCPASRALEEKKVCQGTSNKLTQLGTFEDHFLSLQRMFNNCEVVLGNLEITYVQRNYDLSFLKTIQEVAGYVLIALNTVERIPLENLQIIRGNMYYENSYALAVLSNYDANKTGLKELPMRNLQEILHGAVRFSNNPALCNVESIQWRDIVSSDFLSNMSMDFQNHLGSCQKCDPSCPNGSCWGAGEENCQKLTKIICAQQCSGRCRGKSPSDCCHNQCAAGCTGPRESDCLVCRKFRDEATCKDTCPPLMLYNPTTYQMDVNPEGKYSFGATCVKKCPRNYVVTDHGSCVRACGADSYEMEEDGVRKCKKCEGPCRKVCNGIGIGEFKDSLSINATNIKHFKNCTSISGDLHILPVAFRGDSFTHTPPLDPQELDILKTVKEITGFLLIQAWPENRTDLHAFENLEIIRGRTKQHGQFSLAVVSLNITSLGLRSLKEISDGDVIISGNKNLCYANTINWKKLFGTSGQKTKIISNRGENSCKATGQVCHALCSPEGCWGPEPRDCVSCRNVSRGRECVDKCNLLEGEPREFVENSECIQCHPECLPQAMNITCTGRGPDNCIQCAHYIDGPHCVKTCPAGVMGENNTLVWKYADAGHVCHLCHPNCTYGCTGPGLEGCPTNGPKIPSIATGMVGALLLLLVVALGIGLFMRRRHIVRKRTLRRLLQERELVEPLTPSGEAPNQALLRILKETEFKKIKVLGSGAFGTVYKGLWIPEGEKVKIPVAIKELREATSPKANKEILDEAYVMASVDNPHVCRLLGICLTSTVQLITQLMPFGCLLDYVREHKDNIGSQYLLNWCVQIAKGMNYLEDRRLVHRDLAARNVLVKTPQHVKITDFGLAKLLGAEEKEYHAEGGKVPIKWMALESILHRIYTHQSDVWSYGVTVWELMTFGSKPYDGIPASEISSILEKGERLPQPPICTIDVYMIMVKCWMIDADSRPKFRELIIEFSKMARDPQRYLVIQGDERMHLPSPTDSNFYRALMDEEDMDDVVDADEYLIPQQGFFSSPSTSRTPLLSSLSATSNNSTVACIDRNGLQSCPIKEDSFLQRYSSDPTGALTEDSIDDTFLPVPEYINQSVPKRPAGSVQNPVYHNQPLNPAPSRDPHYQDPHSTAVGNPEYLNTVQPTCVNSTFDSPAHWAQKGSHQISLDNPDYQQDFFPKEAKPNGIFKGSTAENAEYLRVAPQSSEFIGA

IC50 [1]: 0.1 µM
GI50 [2]: 25 µM
Compound: CCc1cc(-c2oncc2-c2ccc(OC)cc2)c(O)cc1OC

IC50 [5]: 20.3 µM
Compound: Cc1onc([C@@H]2CN(C)C3(C(=O)c4ccccc4C3=O)[C@@]23C(=O)N(C)c2cc(Br)ccc23)c1[N+](=O)[O-]

IC50 [6]: 0.2 µM
IC50 [7]: 2.16 µM
Compound: COc1c(Cl)cc(-c2noc(-c3cn(Cc4cc(-c5cc(Cl)cc(Cl)c5)no4)c4ccccc34)n2)cc1Cl

IC50 [8]: 0.01 µM
Compound: COc1cc(-c2nnc(-c3cncc(-c4cc(-c5nccs5)on4)c3)o2)cc(OC)c1OC

IC50 [10]: 0.77 µM
Compound: Cc1ccccc1COc1ccc(-c2noc(C)c2-c2ccc(Cl)cc2)cc1

IC50 [8]: 0.01 µM
Compound: COc1ccc(-c2nnc(-c3cncc(-c4cc(-c5nccs5)on4)c3)o2)cc1

IC50 [14]: 0.7 µM
Compound: COc1cc(NC(=O)c2cc(-c3c[nH]c4ccccc34)no2)cc(OC)c1OC

IC50 [15]: 14 µM
Compound: COc1ccc(-c2noc(NC(=O)c3ccc(F)c(F)c3)c2C#N)c(OC)c1

GI50 [17]: 1 µM
GI50 [18]: 1 µM
Compound: COc1cccc2c1C(=O)c1c(O)c3c(c(O)c1C2=O)C[C@@](O)(C(=O)CO)C[C@@H]3O[C@H]1C[C@H](N)[C@H](O)[C@H](C)O1 [DOXORUBICIN HYDROCHLORIDE]

The remaining lines, values behind:

Compound: CC(=O)c1c(O)c(C)c(O)c2c1OC1=Cc3onc(C)c3C(=O)[C@@]12C
Activity [3]: 80%

Compound: Cc1cc(C[C@@H]2C[C@H]3C(=O)N(C)C4(C[C@H](C)CC[C@H]4C(C)C)N3O2)c(O)c(-n2nc3ccccc3n2)c1 (stereo partly drawn)
LD50 [4]: 1000 mg/kg

Compound: Cc1noc(C)c1-c1cc(Cc2n[nH]c(=O)c3ccccc23)cc(NC(=O)c2ccccc2C(F)(F)F)c1
LD50 [4]: 500 mg/kg

Compound: COc1ccc(/C=C/C(=O)c2ccno2)c(F)c1OC
IC50 [9]: 5 µg/mL (≈ 18 µM)

Compound: COc1ccc(-c2noc(-c3cccs3)c2C(F)(F)F)cc1OC
IC50 [11]: 2.63 µM
IC50 [12]: 2.63 µM
IC50 [13]: 2.63 µM

Compound: c1csc(-c2cc(-c3cncc(-c4nnc(-c5nccs5)o4)c3)no2)n1
IC50 [8]: 0.01 µM

Compound: c1cc(-c2nnc(-c3cncc(-c4cc(-c5nccs5)on4)c3)o2)ccn1
IC50 [8]: 0.01 µM

Compound: CCCCCCCCCCc1cc(CCC(N)(CO)CO)on1
IC50 [16]: 7.5 µM

Compound: c1cnoc1 [ISOXAZOLE]
IC50 [16]: 10 µM
